Measurements taken from ChEMBL document CHEMBL1926671, “3D-Quantitative structure-activity relationship and docking studies of the tachykinin NK3 receptor” (Bioorg Med Chem Lett, 2011).

Target: T1, Neuromedin-K receptor (Homo sapiens, UniProt P29371)
T1 sequence (P29371 whole entry): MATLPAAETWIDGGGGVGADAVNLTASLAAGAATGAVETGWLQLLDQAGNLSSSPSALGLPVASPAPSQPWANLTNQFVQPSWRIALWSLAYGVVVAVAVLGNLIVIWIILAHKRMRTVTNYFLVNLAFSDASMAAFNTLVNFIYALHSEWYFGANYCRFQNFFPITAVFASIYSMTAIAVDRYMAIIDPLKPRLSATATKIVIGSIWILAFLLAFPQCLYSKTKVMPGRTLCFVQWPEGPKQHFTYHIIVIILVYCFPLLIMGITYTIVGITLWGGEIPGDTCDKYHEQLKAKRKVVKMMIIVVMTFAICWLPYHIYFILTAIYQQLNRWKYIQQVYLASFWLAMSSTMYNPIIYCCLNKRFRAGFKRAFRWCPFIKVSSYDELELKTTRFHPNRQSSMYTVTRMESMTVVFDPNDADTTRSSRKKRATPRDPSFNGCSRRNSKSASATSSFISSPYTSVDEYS
Assay: Binding affinity to human NK3 receptor expressed in CHO cells
Assay type: cell-based

`CCCCC(NC(=O)c1cc(-c2ccccc2)nc2ccccc12)c1ccccc1` (stereo unspecified) was tested, and the Ki was 158 nM.
